According to PMC7496091, “Small‐Molecule Inhibitors Targeting Sterol 14α‐Demethylase (CYP51): Synthesis, Molecular Modelling and Evaluation Against Candida albicans” (Chemmedchem, 2020):
Converted amounts (≈) assume the structure as drawn. Read-outs that look alike come from different tables or passages of the source.

What was measured:
C. albicans SC5314 = assay: MIC, CLSI M27-S4 broth dilution, strain SC5314; format: cell-based, Candida albicans; details: 48 hours
Description: The susceptibilities of the SC5314 and CA14C. albicans (azole sensitive) strains to all novel azole derivatives (5, 7 and 12) were determined (Table 3) using the standardized CLSI M27‐S4 broth dilution method.28
Susceptibility testing of C. albicans strains. […] Stock solutions of each agent were prepared in DMSO. Further dilutions were made in RPMI‐1640, and the final concentration of DMSO was 1 % (v/v). The final testing concentrations for all compounds ranged from 0.03–16 μg mL^−1.

C. albicans CA14 = assay: MIC, CLSI M27-S4 broth dilution, strain CA14; format: cell-based, Candida albicans; details: 48 hours
Description: Susceptibility testing of C. albicans strains. […] Stock solutions of each agent were prepared in DMSO. […] The final testing concentrations for all compounds ranged from 0.03–16 μg mL^−1.

CaCYP51 [1] = molecular target: T1, CaCYP51 (Candida albicans, UniProt P10613); assay: biochemical
T1 construct: made in house; host or cells: Escherichia coli
T1 sequence (P10613 whole entry): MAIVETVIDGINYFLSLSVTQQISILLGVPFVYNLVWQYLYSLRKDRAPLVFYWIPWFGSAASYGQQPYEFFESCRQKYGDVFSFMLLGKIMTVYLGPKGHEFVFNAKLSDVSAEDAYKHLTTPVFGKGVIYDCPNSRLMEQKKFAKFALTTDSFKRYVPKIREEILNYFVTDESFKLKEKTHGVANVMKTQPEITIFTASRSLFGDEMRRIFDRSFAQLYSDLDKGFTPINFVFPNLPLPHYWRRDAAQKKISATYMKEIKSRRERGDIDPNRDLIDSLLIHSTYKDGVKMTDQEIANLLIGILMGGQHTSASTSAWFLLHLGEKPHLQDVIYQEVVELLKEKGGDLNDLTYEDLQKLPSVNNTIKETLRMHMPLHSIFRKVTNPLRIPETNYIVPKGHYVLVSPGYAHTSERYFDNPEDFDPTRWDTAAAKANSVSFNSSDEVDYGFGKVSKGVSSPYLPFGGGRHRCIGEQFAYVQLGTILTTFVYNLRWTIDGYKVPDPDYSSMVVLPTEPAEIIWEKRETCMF
Description: […]. […] […]. CYP51 reconstitution assays. IC50 values were determined for individual azole compounds18, 30 using lanosterol as substrate. Azoles were introduced using 2.5 μL of stock solutions in DMSO. CaCYP51 assays contained 1 μM CaCYP51 and 2 μM Homo sapiens cytochrome P450 reductase (HsCPR – UniProtKB accession number P16435) and were incubated for 20 min at 37 °C. HsCYP51 assays contained 0.25 μM Δ60HsCYP51 and 1 μM HsCPR and were incubated for 10 min at 37 °C. Each IC50 experiment was performed in duplicate.

CaCYP51 [2] = molecular target: T1, CaCYP51; assay: biochemical; format: binding
Text: […]. There were no signs of compound insolubility (visible or rising background absorbance) during the ligand titrations. […] […].
The rearranged Morrison equation34 gave the best fit to the ligand saturation curves against CaCYP51 (Figure 5) indicating the selected compounds bound tightly to the purified CaCYP51 protein in free solution. Likewise the rearranged Morrison equation34 gave the best fit for binding 5 d and 5 f to Δ60HsCYP51, thus indicating tight binding in free solution (Figure 5). […].
Recombinant CYP51 protein studies. […] All azole ligand binding determinations were performed in triplicate, except the binding of compound 12 c with Δ60HsCYP51 which was performed six times. CYP51 protein samples were diluted with 0.1 M Tris⋅HCl (pH 8.1) and 25 % (w/v) glycerol to the required concentration.
(§1) Dissociation constant (K d). The K d for each CYP51‐azole complex was determined by non‐linear regression (Levenberg‐Marquardt algorithm) using a rearrangement of the Morrison equation for tight ligand binding.34 Where ligand binding was weaker, the Michaelis‐Menten equation was used to fit the data (Figure S5). K d values were determined for each of the three replicate titrations per azole compound and then mean K d values and standard deviations calculated.

Δ60HsCYP51 [3] = molecular target: T2, Δ60HsCYP51 (Homo sapiens, UniProt Q16850); assay: Azole ligand binding titration (type II difference spectra, Kd), Δ60HsCYP51
T2 sequence (Q16850 61-509, stated change not applied): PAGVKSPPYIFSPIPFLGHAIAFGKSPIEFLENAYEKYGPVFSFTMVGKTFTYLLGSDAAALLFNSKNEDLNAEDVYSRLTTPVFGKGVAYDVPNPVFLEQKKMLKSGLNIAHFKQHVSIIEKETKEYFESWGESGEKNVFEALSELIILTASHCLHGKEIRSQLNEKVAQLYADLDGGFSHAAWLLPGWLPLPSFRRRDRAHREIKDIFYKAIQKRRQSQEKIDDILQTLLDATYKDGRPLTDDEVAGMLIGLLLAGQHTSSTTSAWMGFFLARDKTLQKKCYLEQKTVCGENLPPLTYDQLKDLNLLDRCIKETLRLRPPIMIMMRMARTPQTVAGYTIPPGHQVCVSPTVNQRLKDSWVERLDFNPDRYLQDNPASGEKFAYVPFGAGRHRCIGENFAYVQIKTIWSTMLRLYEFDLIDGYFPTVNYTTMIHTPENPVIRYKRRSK
T2 sequence (P16435 2-677, stated change not applied, further chain): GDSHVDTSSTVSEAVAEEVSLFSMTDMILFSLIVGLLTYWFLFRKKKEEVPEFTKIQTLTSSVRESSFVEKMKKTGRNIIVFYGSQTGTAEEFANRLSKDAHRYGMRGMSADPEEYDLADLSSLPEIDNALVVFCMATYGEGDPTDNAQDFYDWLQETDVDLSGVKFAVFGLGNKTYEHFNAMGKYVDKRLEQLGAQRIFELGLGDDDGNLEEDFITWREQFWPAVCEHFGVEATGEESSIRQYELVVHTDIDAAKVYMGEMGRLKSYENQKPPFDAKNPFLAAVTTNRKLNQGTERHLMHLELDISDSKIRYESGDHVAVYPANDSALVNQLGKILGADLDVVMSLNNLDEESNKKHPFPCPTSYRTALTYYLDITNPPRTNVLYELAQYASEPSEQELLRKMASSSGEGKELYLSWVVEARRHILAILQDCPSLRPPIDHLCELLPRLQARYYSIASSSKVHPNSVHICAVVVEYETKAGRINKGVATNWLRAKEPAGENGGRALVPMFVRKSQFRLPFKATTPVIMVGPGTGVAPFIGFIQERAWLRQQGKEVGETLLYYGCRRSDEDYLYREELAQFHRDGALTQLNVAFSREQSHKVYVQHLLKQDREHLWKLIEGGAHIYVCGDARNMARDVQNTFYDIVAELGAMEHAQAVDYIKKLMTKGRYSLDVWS
Description: Recombinant CYP51 protein studies.
as §1

Δ60HsCYP51 [4] = molecular target: T2, Δ60HsCYP51; assay: CYP51 reconstitution assay (IC50), Δ60HsCYP51; format: biochemical
Description: CYP51 reconstitution assays. […] Azoles were introduced using 2.5 μL of stock solutions in DMSO. […] Each IC50 experiment was performed in duplicate.

[5] = Candida albicans, SC5314, 80 % reduction in turbidity
[6] = Candida albicans, SC5314, value in brackets
[7] = Candida albicans, CA14, 80 % reduction in turbidity
[8] = Candida albicans, CA14, value in brackets
[9] = 1 μM CaCYP51, lanosterol as substrate, curve-fitted, read-out: CaCYP51 IC50
[10] = 3 μM native CaCYP51, mean of three replicates ± SD, read-out: K d CaCYP51

SMILES	MIC (C. albicans SC5314; [5]) [µg/mL]	MIC (C. albicans SC5314; [6]) [µM]	MIC (C. albicans CA14; [7]) [µg/mL]	MIC (C. albicans CA14; [8]) [µM]	IC50 (CaCYP51 [1]; [9]) [µM]	Kd (CaCYP51 [2]; [10]) [µM]	melting point [°C]	also measured
O=C(NCc1ccc(F)cc1)C(Cn1ccnc1)c1ccccc1 (centres unmarked) [Compound 5 b, N‐(4‐Fluorobenzyl)‐3‐(1H‐imidazol‐1‐yl)‐2‐phenylpropanamide]	8	24.7	4	12.4	1.41	0.087 ± 0.027	100 to 102	
O=C(NCc1ccc(Cl)cc1)C(Cn1ccnc1)c1ccccc1 (centres unmarked) [Compound 5 c, N‐(4‐Chlorobenzyl)‐3‐(1H‐imidazol‐1‐yl)‐2‐phenylpropanamide]					1.01	0.06 ± 0.004		MIC SC5314 (C. albicans SC5314; 80 % reduction in turbidity): 8 µg/mL (≈ 23.5 µM); MIC (C. albicans SC5314; value in brackets): 23.5 µM; MIC CA14 (C. albicans CA14; 80 % reduction in turbidity): 4 µg/mL (≈ 11.8 µM); MIC (C. albicans CA14; value in brackets): 11.8 µM
O=C(NCc1ccc(Cl)cc1Cl)C(Cn1ccnc1)c1ccccc1 (centres unmarked) [Compound 5 e, N‐(2,4‐Dichlorobenzyl)‐3‐(1H‐imidazol‐1‐yl)‐2‐phenylpropanamide]	1	2.67	1	2.67	0.99	0.083 ± 0.026	55 to 57	
Cc1ccc(CNC(=O)C(Cn2ccnc2)c2ccccc2)cc1 (centres unmarked) [Compound 5 g, 3‐(1H‐Imidazol‐1‐yl)‐N‐(4‐methylbenzyl)‐2‐phenylpropanamide]	8	25.1	8	25.1	2.45	0.144 ± 0.047	134 to 136	
O=C(NCc1ccc(C(F)(F)F)cc1)C(Cn1ccnc1)c1ccccc1 (centres unmarked) [Compound 5 h, 3‐(1H‐Imidazol‐1‐yl)‐2‐phenyl‐N‐(4‐(trifluoromethyl)benzyl)propanamide]	4	10.7	4	10.7	2.21	0.085 ± 0.019		
COc1ccc(CNC(=O)C(Cn2ccnc2)c2ccccc2)cc1 (centres unmarked) [Compound 5 i, 3‐(1H‐Imidazol‐1‐yl)‐N‐(4‐methoxybenzyl)‐2‐phenylpropanamide]	8	23.9	8	23.9	0.91	0.055 ± 0.01	102 to 104	
COc1ccc(CNC(=O)C(Cn2ccnc2)c2ccccc2)cc1OC (centres unmarked) [Compound 5 j, N‐(3,4‐Dimethoxybenzyl)‐3‐(1H‐imidazol‐1‐yl)‐2‐phenylpropanamide]	> 16	> 43.8	> 16	> 43.8	6.15			
O=C(NCc1ccc(Cl)cc1)C(Cn1cncn1)c1ccccc1 (centres unmarked) [Compound 5 k, N‐(4‐Chlorobenzyl)‐2‐phenyl‐3‐(1H‐1,2,4‐triazol‐1‐yl)propanamide]					4.32	0.167 ± 0.017		MIC SC5314 (C. albicans SC5314; 80 % reduction in turbidity): 8 µg/mL (≈ 23.5 µM); MIC (C. albicans SC5314; value in brackets): 23.5 µM; MIC CA14 (C. albicans CA14; 80 % reduction in turbidity): 8 µg/mL (≈ 23.5 µM); MIC (C. albicans CA14; value in brackets): 23.5 µM
C=C(C(=O)NCc1ccc(F)cc1)c1ccccc1 [Compound 6 b, N‐(4‐Fluorobenzyl)‐2‐phenylacrylamide]							108 to 110	
C=C(C(=O)NCc1ccc(Cl)cc1)c1ccc(Cl)cc1 [Compound 6 d, N‐(4‐Chlorobenzyl)‐2‐(4‐chlorophenyl)acrylamide]							108 to 110	
C=C(C(=O)NCc1ccc(Cl)cc1Cl)c1ccccc1 [Compound 6 e, N‐(2,4‐Dichlorobenzyl)‐2‐phenylacrylamide]							66 to 68	
C=C(C(=O)NCc1ccc(Cl)cc1Cl)c1ccc(Cl)cc1 [Compound 6 f, 2‐(4‐Chlorophenyl)‐N‐(2,4‐dichlorobenzyl)acrylamide]							104 to 106	
C=C(C(=O)NCc1ccc(C)cc1)c1ccccc1 [Compound 6 g, N‐(4‐Methylbenzyl)‐2‐phenylacrylamide]							92 to 94	
C=C(C(=O)NCc1ccc(C(F)(F)F)cc1)c1ccccc1 [Compound 6 h, 2‐Phenyl‐N‐(4‐(trifluoromethyl)benzyl)acrylamide]							88 to 90	
C=C(C(=O)NCc1ccc(OC)cc1)c1ccccc1 [Compound 6 i, N‐(4‐Methoxybenzyl)‐2‐phenylacrylamide]							100 to 102	
C=C(C(=O)NCc1ccc(OC)c(OC)c1)c1ccccc1 [Compound 6 j, N‐(3,4‐Dimethoxybenzyl)‐2‐phenylacrylamide]							102 to 104	
C=C(C(=O)NCc1ccc(NC(=O)OC(C)(C)C)cc1)c1ccccc1 [Compound 6 l, tert‐Butyl (4‐((2‐phenylacrylamido)methyl)phenyl)carbamate]							136 to 138	
Nc1ccc(CNC(=O)C(Cn2cncn2)c2ccccc2)cc1.O=C(O)C(F)(F)F (centres unmarked) [Compound 7]					1.96			MIC SC5314 (C. albicans SC5314; 80 % reduction in turbidity): > 16 µg/mL; MIC (C. albicans SC5314; value in brackets): > 36.8 µM; MIC CA14 (C. albicans CA14; 80 % reduction in turbidity): > 16 µg/mL; MIC (C. albicans CA14; value in brackets): > 36.8 µM
O=C(NCc1ccc(NS(=O)(=O)c2ccccc2)cc1)C(Cn1cncn1)c1ccccc1 (centres unmarked) [Compound 12 a, 2‐Phenyl‐N‐(4‐(phenylsulfonamido)benzyl)‐3‐(1H‐1,2,4‐triazol‐1‐yl)propanamide]	4	8.67	4	8.67	0.54	0.115 ± 0.016	96 to 98	
O=C(NCc1ccc(NS(=O)(=O)c2ccc(F)cc2)cc1)C(Cn1cncn1)c1ccccc1 (centres unmarked) [Compound 12 b, N‐(4‐((4‐Fluorophenyl)sulfonamido)benzyl)‐2‐phenyl‐3‐(1H‐1,2,4‐triazol‐1‐yl) propanamide]					0.2	0.055 ± 0.027		MIC SC5314 (C. albicans SC5314; 80 % reduction in turbidity): 4 µg/mL (≈ 8.34 µM); MIC (C. albicans SC5314; value in brackets): 8.34 µM; MIC CA14 (C. albicans CA14; 80 % reduction in turbidity): 2 µg/mL (≈ 4.17 µM); MIC (C. albicans CA14; value in brackets): 4.17 µM
COc1ccc(S(=O)(=O)Nc2ccc(CNC(=O)C(Cn3cncn3)c3ccccc3)cc2)cc1 (centres unmarked) [Compound 12 d, 2‐Phenyl‐N‐(4‐(4‐methoxyphenylsulfonamido)benzyl)‐3‐(1H‐1,2,4‐triazol‐1‐yl)propanamide]	8	16.3	4	8.14	0.79	0.11 ± 0.022		
C=C(C(=O)NCc1ccc(NS(=O)(=O)c2ccc(F)cc2)cc1)c1ccccc1 [Compound 13 b, N‐(4‐((4‐Fluorophenyl)sulfonamido)benzyl)‐2‐phenylacrylamide]							136 to 138	
C=C(C(=O)NCc1ccc(NS(=O)(=O)c2ccc(OC)cc2)cc1)c1ccccc1 [Compound 13 d, N‐(4‐((4‐Methoxyphenyl)sulfonamido)benzyl)‐2‐phenylacrylamide]							98 to 100	
OC(Cn1cncn1)(Cn1cncn1)c1ccc(F)cc1F [fluconazole, reference compound]	0.125	0.41	0.125	0.41				IC50 (CaCYP51 [1]): 0.31 µM; Ki (CaCYP51 [1]): 0.03 µM; Kd (CaCYP51 [2]): 0.041 ± 0.013 µM; Type of difference binding spectra with Δ60HsCYP51 (Δ60HsCYP51 [3]; titration with Δ60HsCYP51): type II difference binding spectra
CC[C@@H]([C@H](C)O)n1ncn(-c2ccc(N3CCN(c4ccc(OC[C@@H]5CO[C@@](Cn6cncn6)(c6ccc(F)cc6F)C5)cc4)CC3)cc2)c1=O [posaconazole, reference compound]						0.043 ± 0.011		IC50 (Δ60HsCYP51 [4]): 123 µM; Kd (Δ60HsCYP51 [3]): 0.204 ± 0.063 µM
C[C@@H](c1ncncc1F)[C@](O)(Cn1cncn1)c1ccc(F)cc1F [voriconazole, reference compound]								IC50 (Δ60HsCYP51 [4]): 78 µM
